The text below walks through data of patent US10093642B2, “Multitarget hedgehog pathway inhibitors and uses thereof” (UNIVERSITA' DEGLI STUDI DI SIENA, priority 2013, dated 2018).

For experiment [1], the system named is MEF-SuFu−/− cells. Put plainly: Gli1 mRNA (quantitative RT-PCR) in MEF-SuFu−/− cells. The class given is cell-based, mouse. Particulars: different concentrations, 48 h. The method, then: FIG. 9. Confluent MEF-SuFu^−/− cells were treated with DMSO (0.5%, vehicle), GANT61 (10 μM, as positive control) or different concentrations of Glabrescione B for 48 h. Gli1 mRNA levels were determined by quantitative RT-PCR, normalizing to HPRT expression. Error bars indicate SD.
To analyze the antagonist properties of Glabrescione B under more physiological conditions, the inventors used MEF-Ptch^−/− cells, embryo fibroblasts derived from Ptch^−/− mouse, in which the activation of Hh signaling is consequence of Ptch1 deletion. Since Patched acts as upstream repressor of SMO, inhibition of the Hedgehog pathway from Patched is prevented and the Hedgehog pathway is constitutively activated in this cell lines, which turned out to be a reliable cellular model for studying the effect of Hedgehog inhibitors. […]
To further elucidate the concept of downstream pathway inhibition by Glabrescione B, the inventors used MEF-SuFu^−/− cells (a kind gift by R. Toftgard, Karolinska Institutet, Sweden, Svärd, J. et al, 2006), in which the downstream Hh pathway activation is consequence of SuFu genetic ablation. Confluent cells were treated with Glabrescione B at the amount indicated in the FIG. 9 and Gli1 expression levels were determined by quantitative RT-PCR as previously described. […]

Experiment [2] relates to HepG2 hepatocellular carcinoma cells. Put plainly: Effect on Hh-independent HepG2 cells. The class given is cell-based.
Experiment [3] has as its system Cancer stem cells (CSCs) isolated from murine Ptch+/− MB. Put plainly: Gli1 mRNA in MB cancer stem cells (neurospheres). The class given is cell-based. Particulars: 48 h, quantitative RT-PCR. As for the experimental part: FIG. 13. […] Gli1 mRNA levels were determined by quantitative RT-PCR using HPRT as normalizer.
Hh activity preferentially associates to stemness features. For this reason, the Hh pathway antagonist Glabrescione B has also been investigated for its ability to modulate the behavior of MB cancer stem cells (CSCs).
It has been described that Hh activity preferentially associates to stemness features. In order to determine whether Glabrescione B also modulates the behavior of MB cancer stem cells (CSCs), neurospheres isolated from murine Ptch^+/− MB were treated with Glabrescione B for 48 h and the levels of Gli1 were determined by quantitative RT-PCR. Murine MBs were isolated from Ptch1^+/− mice (Goodrich, Milenkivic et al. 1997). Tissues were collected in HBSS supplemented with 0.5% glucose and penicillin-streptomycin, grossly triturated with serological pipette and treated with DNAse I to a final concentration of 0.04% for 20 min. Finally, cells aggregates were mechanically dissociated using pipettes of decreasing bore size to obtain a single cell suspension. […]

Experiment [4] concerns Ptch1+/− MB allografts. Nature of the experiment: Ptch1+/− MB allograft in nude mice. The conditions noted are these: 18 days. Format: in vivo, BALB/c nude mice. The text has this: FIG. 17. Glabrescione B inhibits Gli1-dependent MB tumor growth in vivo (Ptch1^+/− MB allografts). (A) Change of tumor volume during Glabrescione B (GlaB) or vehicle (CTR) treatment period (days 18). […] (C) qRT-PCR of Gli1 and Ptch1 mRNA expression levels normalized with endogenous control β2-microglobulin and HPRT.
Therefore, to verify the Glabrescione B efficacy to inhibit Hh-dependent tumor cell growth in vivo, we turned to an allograft model of MB cells. Spontaneous Medulloblastomas from Ptch1^+/− mice were isolated, minced, pipetted to obtain a single-cell suspension and grafted s.c. at the posterior flank of female BALB/c nude mice (nu/nu) (Charles River Laboratories, Lecco, Italy). Tumors were grown until a median size of ˜100 mm^3. Animals were randomly divided into two groups (n=6) and treated with solvent only (2-hydroxypropyl-β-cyclodextrin:ethanol, 3:1) or Glabrescione B in solvent (75 μmol/Kg) for 18 days (2-hydroxypropyl-β-cyclodextrin was purchased from Sigma Aldrich, St. Louis, Mo., USA). 2×10^6 ASZ001 BCC cells were resuspended in an equal volume of 154CF medium and Matrigel (BD Biosciences, Heidelberg, Germany) and injected s.c. at the posterior flank of female NOD/SCID mice (Charles River Laboratories, Lecco, Italy), as previously described (Eberl et al, 2012). Tumors were grown until a median size of ˜200 mm^3. Animals were randomly divided into two groups (n=6) and treated with solvent only (2-hydroxypropyl-β-cyclodextrin:ethanol, 3:1) or Glabrescione B in solvent (100 μmol/Kg) for 18 days. Tumor volumes change was calculated by the formula length×width×0.5×(length+width) (Lauth et al, 2007).
Nude mice were grafted with spontaneous primary MB from Ptch1^+/− mice and treated every second day with s.c. injections of Glabrescione B at a concentration of 75 μmol/Kg or solvent only (n=6 for each group).

Take `COc1cc(OC)c2c(=O)c(-c3ccc(OCC=C(C)C)c(OCC=C(C)C)c3)coc2c1` [Glabrescione B, 3-(3′,4′-bis(3-methylbut-2-enyloxy)phenyl)-5,7-dimethoxy-4H-chromen-4-one]: the “Gli1 expression levels (quantitative RT-PCR)” value in experiment [1] is reported as “significant reduction of the high expression levels of Gli1”. Moreover, the “effect on HepG2 cells” value in experiment [2] is “no effect”. The “Gli1 mRNA levels in MB CSCs” value in experiment [3] is “reduction of Gli1 mRNA levels”. In addition, the tumor mass entry in experiment [4] (75 μmol/Kg s.c. every second day) is “significantly suppressed tumor mass”. In experiment [4] (75 μmol/Kg s.c.), the “Gli1 mRNA levels in tumors” value was “reduction of Gli1 mRNA levels” and the “Ki67 staining in tumors” value is on record as “decreased Ki67 staining”.
